target: T1, cystine/glutamate transporter (Homo sapiens, UniProt Q9UPY5); assay: Inhibition of 3H-L-Glu uptake in DEM treated cells; format: cell-based; settings: SK-OV-3, 0.5 h; 1 mM agent; SKOV3 cells treated with 100 μM DEM overnight; 30 minutes uptake at room temperature; triplicate; lower = inhibition of transporter; read-out: % of control 3H-Glu uptake
T1 construct: endogenous in cells; host or cells: SKOV3 cells treated with 100 uM DEM (the paragraph also says 'DEM treated EL4 cells')
T1 sequence (Q9UPY5 1-501): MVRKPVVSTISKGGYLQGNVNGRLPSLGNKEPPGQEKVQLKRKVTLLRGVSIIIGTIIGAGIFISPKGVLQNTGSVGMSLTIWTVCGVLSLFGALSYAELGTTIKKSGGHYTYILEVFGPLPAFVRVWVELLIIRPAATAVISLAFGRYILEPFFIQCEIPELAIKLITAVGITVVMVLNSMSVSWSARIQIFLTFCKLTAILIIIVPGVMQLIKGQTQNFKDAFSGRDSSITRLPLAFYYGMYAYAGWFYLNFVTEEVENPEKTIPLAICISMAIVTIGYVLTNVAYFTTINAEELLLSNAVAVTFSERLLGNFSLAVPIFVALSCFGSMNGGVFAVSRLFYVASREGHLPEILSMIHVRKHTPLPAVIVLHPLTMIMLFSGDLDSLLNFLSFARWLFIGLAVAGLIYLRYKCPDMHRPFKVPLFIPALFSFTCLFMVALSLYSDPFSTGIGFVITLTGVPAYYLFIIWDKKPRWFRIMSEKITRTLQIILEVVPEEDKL
T1 sequence (P08195 2-529 partner): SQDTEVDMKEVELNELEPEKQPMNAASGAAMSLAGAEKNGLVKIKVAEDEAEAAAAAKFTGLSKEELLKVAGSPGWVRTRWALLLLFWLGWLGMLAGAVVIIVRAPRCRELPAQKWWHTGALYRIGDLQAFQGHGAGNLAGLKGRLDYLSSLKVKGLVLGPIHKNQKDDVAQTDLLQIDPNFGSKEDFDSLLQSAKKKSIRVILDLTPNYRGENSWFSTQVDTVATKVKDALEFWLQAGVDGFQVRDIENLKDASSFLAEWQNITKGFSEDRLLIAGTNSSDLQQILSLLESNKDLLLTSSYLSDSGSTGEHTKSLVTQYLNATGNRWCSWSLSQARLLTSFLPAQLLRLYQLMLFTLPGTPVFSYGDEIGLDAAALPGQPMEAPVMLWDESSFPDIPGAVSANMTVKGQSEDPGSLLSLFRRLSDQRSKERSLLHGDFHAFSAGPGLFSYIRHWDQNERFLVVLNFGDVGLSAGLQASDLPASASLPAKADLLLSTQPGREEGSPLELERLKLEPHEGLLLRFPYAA
Protocol: Also provided are measurements of inhibition response of ^3H-L-GLU (control) uptake in DEM treated EL4 cells. As such 96 well plate were seeded with 100,000 SKOV3 cells/well in complete growth media (McCoy's+10% Fetal Bovine Serum(FBS)) and incubated overnight at 37° C. The media was changed to 100 μM DEM and again incubated overnight at 37° C. Wash 1× with Hank's Balanced Salt Solution (HBSS) Room Temperature and assayed […] of each agent (Table 2) in triplicate by incubating for 30 minutes (uptake) at room temperature. It was then washed twice with HBSS and 200 μl MicroScint20 added for counting. The protocol used 200 μCi ^3H-Glu per well. The mix and agent and ^3H-Glu provided a final concentration of 200 μCi and 1 mM agent. […] As such lower response is indicative of inhibition of the transporter. As such numbers below approximately 30% is equivalent to 70% inhibition and are considered good candidates for pharmaceutical agents.

SMILES	remaining activity at 1000 µM [%]
N[C@@H](CCCN(CC(=O)O)C(=O)Cc1ccccc1)C(=O)O [Structure j]	43.3
CC(=O)N(CCC[C@H](N)C(=O)O)CCC(=O)O [Structure a]	118
CCOc1cccc(C(=O)N(CCC[C@H](N)C(=O)O)CC(=O)O)c1 [Structure h]	39.8
CCc1ccc(C(=O)N(CCC[C@H](N)C(=O)O)CC(=O)O)cc1 [Structure g]	11.2
CCOc1ccc(C(=O)N(CCC[C@H](N)C(=O)O)CC(=O)O)cc1 [Structure i]	17.3
N[C@@H](CCCN(CCC(=O)O)C(=O)c1ccccc1)C(=O)O [Structure d]	36
CC(=O)N(CCC[C@H](N)C(=O)O)CC(=O)O [Structure b]	95.7
CC(=O)N(CCCC[C@H](N)C(=O)O)CCC(=O)O [Structure c]	102
N[C@@H](CCCN(CC(=O)O)C(=O)c1ccccc1)C(=O)O [Structure f]	37.2
CCCC(=O)N(CCCC[C@H](N)C(=O)O)CC(=O)O [Structure e]	102

Further lines, results first:

remaining activity at 1000 µM [%]	SMILES
12.3	N[C@@H](CCCN(CC(=O)O)C(=O)CCc1ccccc1)C(=O)O [Structure n]
11.6	CCOc1ccc(C(=O)N(CCC[C@H](N)C(=O)O)CCC(=O)O)cc1 [Structure k]
45.4	N[C@@H](CCCN(CCC(=O)O)C(=O)c1ccc(O)cc1)C(=O)O [Structure t]
26.1	CCC(C(=O)O)N(CCC[C@H](N)C(=O)O)C(=O)c1ccccc1 (stereo partly shown) [Structure w]
12.7	N[C@@H](CCCN(CCC(=O)O)C(=O)c1ccc(OCc2ccccc2)cc1)C(=O)O [Structure u]
16.4	N[C@@H](CCCN(CC(=O)O)C(=O)OCc1ccccc1)C(=O)O [Structure r]
12.4	N[C@@H](CCCN(CC(=O)O)C(=O)c1cccc2ccccc12)C(=O)O [Structure p]
54.2	N[C@@H](CCCN(CCC(=O)O)C(=O)Cc1ccccc1)C(=O)O [Structure l]
22.4	N[C@@H](CCCN(CC(=O)O)C(=O)c1ccc(O)cc1)C(=O)O [Structure s]
10.6	N[C@@H](CCCN(CCC(=O)O)C(=O)c1ccc(OCCF)cc1)C(=O)O [Structure y]
13.4	Cc1ccc(S(=O)(=O)N(CCC[C@H](N)C(=O)O)CC(=O)O)cc1 [Structure q]
13.3	N[C@@H](CCCN(CC(=O)O)C(=O)c1ccc(OCCF)cc1)C(=O)O [Structure x]

Reference: patent US9468692B2, “Labeled molecular imaging agents and methods of use” (GENERAL ELECTRIC COMPANY, priority 2014, dated 2016)
